# Test results taken from patent publication US10555987B2, “GHRH agonists for the treatment of ischemic disorders” (UNIVERSITY OF MIAMI, priority 2012, dated 2020).
# Non-standard residues stand in square brackets, D forms with d. Residues, ends and D or L forms follow the SMILES beside them. *: point of attachment. Phe(F5) = N[C@@H](Cc1c(F)c(F)c(F)c(F)c1F)C(=O)O; Desaminotyrosyl = O=C(CCc1ccc(O)cc1)*; NMeY = CN[C@@H](Cc1ccc(O)cc1)C(=O)O; Agmatine = N=C(N)NCCCCN*; Nle = CCCC[C@H](N)C(=O)O; Orn = NCCC[C@H](N)C(=O)O; Abu = CC[C@H](N)C(=O)O; GABA = NCCCC(=O)O
# Columns and labels:
# GH release [1] = assay: In vivo endocrine activity, GH release after intravenous administration (Table 8); settings: rat; for GH releasing potency in vivo relative to JI-38 (=1): i.v. injection
# GH release [2] = assay: In vivo endocrine activity, GH release after subcutaneous administration (Table 9); settings: rat; for Stimulation of growth hormone levels after subcutaneous administration (in words): s.c.; for GH releasing potency relative to JI-38 (=1): subcutaneous (s.c.) injection
# Experimental: Subcutaneous Administration. Adult male rats were used and anesthetized with pentobarbital (6 mg/100 g, b.w.), by i.p. injection. […] Blood samples were taken from the jugular vein 5, 15 and/or 30 minutes after the injection. The blood samples were centrifuged, plasma was removed and the GH level was measured byELISA. The results are summarized in terms of potency in Table 9.
# [3] = system: myocardial infarction (Fisher-344 rats); assay: Serial echocardiography after MI, compared to JI-38 (Example 15, Table 15); format: in vivo, rat; parameters: key to LVEDD: Left Ventricular End Diastolic Diameter / LVESD: Left Ventricular End Systolic Diameter / VD: Ventricular Diastole / VS: Ventricular Systole / EF: Ejection Fraction / FS: Fraction Shortening: ↓: downward arrow denotes lower than JI-38; ↑: upward arrow denotes greater than JI-38; =denotes same as JI-38; ⬇⬇: double arrow denotes greater effect; ⬆⬆: double arrow denotes greater effect; settings: for EF: Ejection Fraction / FS: Fraction Shortening / LVEDD: Left Ventricular End Diastolic Diameter / LVESD: Left Ventricular End Systolic Diameter / VD: Ventricular Diastole / VS: Ventricular Systole: in comparison to JI-38
# Procedure, shortened: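 Female 6-month-old Fisher-344 rats with permanent left coronary artery ligation received placebo, JI-38 or GHRH agonists subcutaneously twice daily from 2 h post-surgery (10 per group). Under 2% isoflurane, M-mode LVEDD, LVESD and FS plus long-axis EF were measured at baseline, 2 days, 1, 2 and 4 weeks.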
# GHRH receptor [4] = biological target: T1, GHRH receptor (Homo sapiens, UniProt Q02643); assay: GHRH receptor binding, competition with 125I-labeled JV-1-42, human pituitary membrane homogenates (Table 5); parameters: Normal human pituitaries were purchased from the National Hormone and Peptide Program; tissue National Hormone and Peptide Program (A.F. Parlow, Harbor-UCLA Medical Center, Torrance, Calif.); host or cells: normal human pituitary, membrane fraction; settings: for Relative affinity (Binding potency) vs GHRH: GHRH(1-29) = 1, Table 5; for Relative affinity (Binding potency) vs JI-38: JI-38 = 1, Table 5
# T1 sequence (Q02643 23-423): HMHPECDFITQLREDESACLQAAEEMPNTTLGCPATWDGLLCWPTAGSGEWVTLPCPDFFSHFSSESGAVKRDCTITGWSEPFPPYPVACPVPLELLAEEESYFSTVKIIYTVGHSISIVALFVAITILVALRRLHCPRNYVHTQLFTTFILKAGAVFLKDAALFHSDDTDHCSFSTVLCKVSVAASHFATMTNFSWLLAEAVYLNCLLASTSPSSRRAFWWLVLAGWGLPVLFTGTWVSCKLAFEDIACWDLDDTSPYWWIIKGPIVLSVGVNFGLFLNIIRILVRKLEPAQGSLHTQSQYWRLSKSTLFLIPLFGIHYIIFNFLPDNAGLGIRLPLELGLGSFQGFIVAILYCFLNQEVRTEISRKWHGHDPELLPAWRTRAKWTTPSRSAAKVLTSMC
# GHRH receptor [5] = biological target: T1, GHRH receptor; assay: GHRH receptor binding, competition with 125I-labeled JV-1-42, human pituitary membrane homogenates (Table 7); parameters: Normal human pituitaries were purchased from the National Hormone and Peptide Program; tissue National Hormone and Peptide Program (A.F. Parlow, Harbor-UCLA Medical Center, Torrance, Calif.); host or cells: normal human pituitary, membrane fraction; settings: JI-38 = 1, Table 7
# Description: Normal human pituitaries were purchased from the National Hormone and Peptide Program (A.F. Parlow, Los Angeles, County Harbor-UCLA Medical Center, Torrance, Calif.).
Compound,GH releasing potency in vivo relative to JI-38 (=1) (GH release [1]; 5 min after),GH releasing potency in vivo relative to JI-38 (=1) (GH release [1]; 15 min after),GH releasing potency in vivo relative to JI-38 (=1) (GH release [1]; 30 min after),Stimulation of growth hormone levels after subcutaneous administration (in words) (GH release [2]),GH releasing potency relative to JI-38 (=1) (GH release [2]; 15 min after),GH releasing potency relative to JI-38 (=1) (GH release [2]; 30 min after),cardiac dimensions (LVEDD and LVESD) ([3]; after MI),cardiac performance (EF and FS) ([3]; after MI),EF: Ejection Fraction [3],FS: Fraction Shortening [3],LVEDD: Left Ventricular End Diastolic Diameter [3],LVESD: Left Ventricular End Systolic Diameter [3],VD: Ventricular Diastole [3],VS: Ventricular Systole [3],Relative affinity (Binding potency) vs GHRH (GHRH receptor [4]),Relative affinity (Binding potency) vs JI-38 (GHRH receptor [4]),Relative affinity (Binding potency) vs JI-38 (GHRH receptor [5]),Stimulation of growth hormone levels after intravenous administration (in words) (GH release [1]; i.v.)
"CCCC[C@H](NC(=O)[C@@H](NC(=O)[C@H](CC(=O)O)NC(=O)[C@H](CCC(N)=O)NC(=O)[C@H](CC(C)C)NC(=O)[C@H](CC(C)C)NC(=O)[C@H](CCCN)NC(=O)[C@H](CCCNC(=N)N)NC(=O)[C@H](C)NC(=O)[C@H](CO)NC(=O)[C@H](CC(C)C)NC(=O)[C@H](CCC(N)=O)NC(=O)[C@H](CC)NC(=O)[C@H](CC(C)C)NC(=O)[C@@H](NC(=O)[C@H](CCCN)NC(=O)[C@H](CCCNC(=N)N)NC(=O)[C@H](Cc1ccc(O)cc1)NC(=O)[C@H](CO)NC(=O)[C@H](CCC(N)=O)NC(=O)[C@@H](NC(=O)[C@H](Cc1ccccc1)NC(=O)[C@@H](NC(=O)[C@H](C)NC(=O)[C@H](CC(=O)O)NC(=O)[C@H](C)NC(=O)[C@H](Cc1ccc(O)cc1)NC)[C@@H](C)CC)[C@@H](C)O)C(C)C)[C@@H](C)CC)C(=O)N[C@@H](CC(=O)O)C(=O)NCCCCNC(=N)N [Peptide P-20356, [N—Me-Tyr^1, Gln^8, Orn^12, Abu^15, Orn^21, Nle^27, Asp^28, Agm^29]hGHRH(1-29) NH2] (H-[NMeY]ADAIFTQSYR[Orn]VL[Abu]QLSAR[Orn]LLQDI[Nle]D-Agmatine)",1.07,0.91,1.22,stimulated greater growth hormone levels than hGHRH or JI-38,1.72,1.09,reduced cardiac dimensions,substantial improvement on cardiac performance,=,⬆⬆,⬇⬇,⬇⬇,=,=,406.0,171,16.11,–
"CCCC[C@H](NC(=O)[C@@H](NC(=O)[C@H](CC(=O)O)NC(=O)[C@H](CCC(N)=O)NC(=O)[C@H](CC(C)C)NC(=O)[C@H](CC(C)C)NC(=O)[C@H](CCCN)NC(=O)[C@H](CCCNC(=N)N)NC(=O)[C@H](C)NC(=O)[C@H](CO)NC(=O)[C@H](CC(C)C)NC(=O)[C@H](CCC(N)=O)NC(=O)[C@H](CC)NC(=O)[C@H](CC(C)C)NC(=O)[C@@H](NC(=O)[C@H](CCCN)NC(=O)[C@H](CCCNC(=N)N)NC(=O)[C@H](Cc1ccc(O)cc1)NC(=O)[C@H](CO)NC(=O)[C@H](CC(N)=O)NC(=O)[C@@H](NC(=O)[C@H](Cc1c(F)c(F)c(F)c(F)c1F)NC(=O)[C@@H](NC(=O)[C@H](C)NC(=O)[C@H](CC(=O)O)NC(=O)[C@@H](C)NC(=O)CCc1ccc(O)cc1)[C@@H](C)CC)[C@@H](C)O)C(C)C)[C@@H](C)CC)C(=O)N[C@@H](CO)C(=O)N[C@@H](CCCNC(=N)N)C(=O)NCCCC(N)=O [Peptide P-25502, [Dat^1, D-Ala^2, Fpa5^6, Orn^12, Abu^15, Orn^21, Nle^27, Gab^30]hGHRH(1-30)NH2] (Desaminotyrosyl-[dA]DAI[Phe(F5)]TNSYR[Orn]VL[Abu]QLSAR[Orn]LLQDI[Nle]SR[GABA]-NH2)",6.76,5.40,5.83,stimulated greater growth hormone levels than hGHRH or JI-38,1.10,0.94,–,–,=,=,=,=,↑,↑,58.0,24.4,13.18,most potent
